Entries after “also recorded” stand apart in the source; their conditions may differ. Read-outs that look alike come from different tables or passages of the source.
Key:
[1] = test system: adult S. mansoni; test: In vitro assay on adult S. mansoni worms in albumin-enriched medium (45 g/l); type: cell-based; conditions: Schistosoma mansoni, read-out: Adult IC50 with albumin
Method: (§1) Hit compounds identified on NTS progressed into testing on adult worms. Females, males and pairs (3 to 5 worms per well) were exposed to the drug dilution in supplemented RPMI medium. The assays were performed in duplicate in 24-wells plates (Eppendorf AG, Hamburg, Germany). […] Each IC50 assay was repeated once. These assays were repeated for the lead compounds in presence of albumin (BSA) at the human physiological concentration of 45 g/l (AlbuMAX II, Gibco). For all in vitro assays (NTS and adults), negative controls containing the highest concentration of DMSO were included. Worms incubated with praziquantel served as positive controls. The parasites were evaluated under an inverted optical microscope over 3 days after drug exposure. Their movement and morphology were assessed and scored as described previously.
(§2) For in vitro assays, the average viability scores between replicates (or individual adult worms) were normalised to the controls and converted into percentage activity (or effect). […] The linear correlation coefficient (r) reflects the experimental fit. In this study, r-values > 0.70 were considered acceptable. […] The selectivity index (SI) of each drug was calculated by dividing the CC50 measured on the L6 cells by the IC50 measured on the parasites. For in vivo studies, as previously described, the worm burden reduction [%] was determined by comparing the worm burden of treated and untreated mice. For statistical significance a Kruskal-Wallis test was employed (R version 3.2.2).

[2] = test system: newly transformed schistosomula (NTS) of Schistosoma mansoni; test: In vitro assay on newly transformed schistosomula (NTS), viability scoring by microscopy; type: cell-based
Source text: (§3) The S. mansoni (Liberian strain) life-cycle, is maintained in-house at the Swiss Tropical and Public Health Institute (Swiss TPH), as described before. Biomphalaria glabrata were infected with 6 to 8 S. mansoni miracidia. They were kept in pond water under natural light, temperature and humidity conditions until the infectious stage, the cercariae, started to shed. The cercariae were mechanically transformed to schistosomula, the NTS, using a procedure adapted from Milligan & Jolly. NTS were incubated (37 °C, 5% CO2) until use for 12 to maximum 24 h in M199 medium supplemented with FCS and antibiotics. Adult S. mansoni of both sexes were collected by dissecting the intestinal veins of mice euthanized 7 weeks post-infection. All the adult worms recovered were incubated for maximum one week until use in RPMI medium supplemented with FCS and penicillin-streptomycin.
For in vitro screening on NTS, the parasite suspension was adjusted to 50 NTS/100 μl in supplemented M199 medium and added to the drug dilutions in 96-wells plates (Eppendorf AG, Hamburg, Germany). NTS were initially exposed to a drug concentration of 10 μM (0.1% DMSO). Each drug was tested in duplicate.
as §1, with “Germany). […] Each assay on NTS was performed in triplicate with serial drug dilutions (1:2, range: 10–0.16 μM) and repeated once.” for “Germany).”
(§4) For in vitro assays, the average viability scores between replicates (or individual adult worms) were normalised to the controls and converted into percentage activity (or effect). Drug IC50 values (for NTS or adult worms) were calculated by computing different dose-effect values using CompuSyn2 software (ComboSyn Inc., 2007). The linear correlation coefficient (r) reflects the experimental fit. In this study, r-values > 0.70 were considered acceptable. […] The selectivity index (SI) of each drug was calculated by dividing the CC50 measured on the L6 cells by the IC50 measured on the parasites. For in vivo studies, as previously described, the worm burden reduction [%] was determined by comparing the worm burden of treated and untreated mice. For statistical significance a Kruskal-Wallis test was employed (R version 3.2.2).

[3] = test system: adult S. mansoni; test: In vitro assay on adult S. mansoni worms, viability scoring by microscopy; type: cell-based; conditions: Schistosoma mansoni, read-out: Adult IC50
Source text: as §3, §1, §2

[4] = Cytotoxicity assay on L6 cells (resazurin / Alamar Blue); type: cell-based; conditions: rat
Method: Rat skeletal myoblast L6 cells (2 × 10^4 cells/ml) were exposed to serial dilutions of the 11 lead compounds (1:3, range: 0.37–90 μM). Podophyllotoxin (PPT, 1:3, range: 2 × 10^-4 –0.05 μg/ml) was used as a positive control. After a 72-hour incubation, resazurin dye (Alamar Blue) was added to the plates. […] Each drug was tested in duplicate and each assay was repeated once.
as §4

[5] = test system: MRC5 cells; conditions: read-out: MRC5 cells CC50; ref provided by MMV; cited from earlier work
[6] = test system: S. mansoni; test: In vivo efficacy in mice harbouring a chronic S. mansoni infection (worm burden); parameters: species or system Schistosoma mansoni; conditions: for inhibition in vivo at 200 mg/kg: Schistosoma mansoni
Method: (§5) Three weeks old NMRI female mice were used (Charles Rivers, Germany) for in vivo drug efficacy studies. The animals were kept in groups of ten with constant access to food and water. After one week of habituation, mice were sub-cutaneously injected a suspension containing 100 S. mansoni cercariae in phosphate-buffered saline (PBS). The drugs (200 mg/kg single dose) were administered seven weeks post-infection by oral gavage to groups of 4 mice. They were dissolved in tap water with Tween80/ethanol (10%, 70:30). Untreated mice (n = 10) served as control and were dissected 7 weeks post-infection. Treated mice (n = 40) were euthanized with CO2 and dissected between 16 to 18 days post-drug administration. The worms were then collected, sexed and counted.
as §4

[7] = Survival of treated infected mice in the in vivo study; conditions: single 200 mg/kg oral dose
Method: as §5
Eight compounds had no effect on the worm burden in infected mice (worm burden reduction < 36%).

[8] = Schistosoma mansoni, 24 h; read-out: NTS IC50
[9] = Schistosoma mansoni, 48 h; read-out: NTS IC50
[10] = 72-hour incubation, read-out: L6 cells CC50
[11] = po, read-out: WBR (worm burden reduction), mice, single 200 mg/kg oral dose, 49-day-old adult infection
[12] = mice, single 200 mg/kg oral dose, 49-day-old adult infection
[13] = mice, single 200 mg/kg oral dose, 49-day-old adult infection, read-out: WBR (worm burden reduction)

| Structure (SMILES) | IC50 [2, 8] [µM] | IC50 [2, 9] [µM] | CC50 at 72 h [4, 10] [µM] | CC50 [5] [µM] | Mean worm burden ± SD [6, 12] | inhibition in vivo at 200 mg/kg [6, 13] [%] | IC50 ([1]; 24 h, albumin 45 g/l) [µM] | IC50 ([1]; 72 h, albumin 45 g/l) [µM] | IC50 ([3]; 24 h, standard medium) [µM] | IC50 ([3]; 48 h, standard medium) [µM] | CC50 at 72 h [4] [µM] | IC50 ([1]; 48 h, albumin 45 g/l) [µM] | other results |
| --- | --- | --- | --- | --- | --- | --- | --- | --- | --- | --- | --- | --- | --- |
| CC(C)(Cc1c[nH]c2ccc(Cl)cc12)NCCOc1ccccc1OCC1CC1 [MMV690599] | 10.5 | 3.5 | 3.4 | 2 | 44.7 ± 29.6 | – | – | – | – | – | – | – | IC50 ([1]; 24 h): 23.6 µM; IC50 ([1]; 48 h): 19.1 µM; IC50 ([1]; 72 h): 15.9 µM; IC50 ([3]; 48 h): 3.3 µM; inhibition in vivo at 200 mg/kg [6, 11]: 3.2% |
| CC[C@@H]1C(=O)N(C)c2cnc(Nc3ccc(C(=O)NC4CCN(C)CC4)cc3OC)nc2N1C1CCCC1 [MMV690787] | – | – | – | 0.1 | 48.3 ± 21.6 | 0 | – | – | – | – | – | – | – |
| Fc1ccc(Cl)cc1-c1nc(Nc2ccncc2)c2nccnc2n1 [MMV690534] | – | – | – | 12.4 | 7.8 ± 7.5 | – | – | – | – | – | – | – | IC50 ([2]; Schistosoma mansoni, 24 h, read-out: NTS IC50): 11.8 µM; IC50 ([2]; Schistosoma mansoni, 48 h, read-out: NTS IC50): 14.3 µM; IC50 ([3]; 24 h): 17.4 µM; IC50 ([3]; 48 h): 19.3 µM; CC50 at 72 h ([4]; L6 skeletal myoblast cells, 72-hour incubation, read-out: L6 cells CC50): 74.5 µM; inhibition in vivo at 200 mg/kg [6, 11]: > 50% |
| COc1ccc(NC(=O)c2ccc(-c3ccc(-c4noc(C)n4)cc3C)cc2)cc1N1CCN(C)CC1 [MMV003452] | 4.4 | 2.2 | – | 1.9 | 40.5 ± 17.2 | 12.2 | 22.6 | 7.5 | 1.7 | 3 | 3.7 | – | – |
| CCOc1cc2ncc(C#N)c(Nc3ccc(F)c(Cl)c3)c2cc1NC(=O)/C=C/CN(C)C [MMV690765, Pelitinib] | 914 | > 1 | – | 0.7 | 84.0 ± 56.4 | 0 | 652 | 124 | 4.2 | 3.4 | 11.8 | 226 | – |
| CC#CC(=O)Nc1ccc2ncnc(Nc3cccc(Br)c3)c2c1 [MMV690684] | 4 | 3.1 | – | 7 | 41.5 ± 16.5 | 10 | 76.8 | 7.7 | 4.9 | 4.7 | 7 | 14.4 | – |
| Nc1nc2ccc(Cl)cc2c2nc(-c3ccco3)nn12 [MMV001539] | 12.7 | 11 | 2.9 | 16 | – | – | – | – | 28.2 | 12.3 | – | – | – |
| Cc1ccc(C(=O)N(CCCN)[C@@H](c2nc3cc(Cl)ccc3c(=O)n2Cc2ccccc2)C(C)C)cc1 [MMV690646, Ispinesib] | 3 | 1.1 | – | 0.2 | – | – | 32 | 33.6 | 3.7 | – | – | 122 | death of treated mice [7]: died prematurely; also recorded: death of the mice |
| O=C(O)Cc1cccc(OCCCN(Cc2cccc(C(F)(F)F)c2Cl)CC(c2ccccc2)c2ccccc2)c1 [MMV690466] | 14.6 | 3.8 | 1.6 | 8.4 | 10.3 ± 6.9 | 35.9 | 18.1 | 47.6 | 2.9 | 2.3 | – | 89.7 | effect on NTS at 10 μM ([2]; 10 μM, 48 h): high effect; also recorded: high activity |
| CNCc1ccc(C)c(NC(=O)c2ccc(Nc3nc(-c4ccccc4)c4ccccc4n3)cc2)c1 [MMV690732] | 29.5 | 6.3 | – | 1.9 | 47.5 ± 24.3 | 0 | 62.8 | 54.1 | 4.9 | 2.9 | 2.3 | 181 | – |

Reference: article PMC5952519, “Screening a repurposing library, the Medicines for Malaria Venture Stasis Box, against Schistosoma mansoni” (Parasites & Vectors, 2018)
